Assay results: patent US9795139B2, “Molecules having pesticidal utility, and intermediates, compositions, and processes, related thereto” (priority 2015, dated 2017)
Read-outs that look alike come from different tables or passages of the source.

Legend:
Type in all cases: in vivo
[1] = tested on: Beet Armyworm (Spodoptera exigua, LAPHEG); assay: Bioassay on Beet Armyworm (BAW), 128-well diet tray assay; details: 168 h, read-out: BAW % Control (or Mortality) rating
Method in brief: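 Diet in each of eight wells received 50 μg/cm^2 of test molecule (90:10 acetone-water, dried), then one to five second-instar larvae were added. Mortality (%) was scored after five to seven days at 25° C. under 14:10 light-dark and averaged across the wells.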

[2] = tested on: Cabbage Looper (Trichoplusia ni, TRIPNI); assay: Bioassay on Cabbage Looper (CL), 128-well diet tray assay; details: 168 h, read-out: CL % Control (or Mortality) rating
Method in brief: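 Using eight wells per molecule, artificial diet was dosed at 50 μg/cm^2 with compound in 90:10 acetone-water and dried before one to five second-instar larvae were added per well. Covered vented trays were kept at 25° C. with 14:10 light-dark for five to seven days, then per-well percent mortality was recorded and averaged.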

[3] = tested on: Yellow Fever Mosquito (Aedes aegypti, AEDSAE); details: about 1 day-old larvae, 96-well plate from 4000 ppm DMSO master, 3 days at room temperature
Method in brief: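 Aedes aegypti larvae (about 1 day old) in liver-powder water were added to plates dispensed from DMSO master plates (4000 ppm stock) diluted with 90:10 water/acetone; six replicate plates per master. Lidded plates were held at room temperature for 3 days, then each well was scored for mortality.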

[4] = 50 μg/cm^2 on artificial diet, second instar larvae, 25° C., five to seven days, average of eight wells

Structure (SMILES) | mortality at 50 µg/cm2 [1, 4] [%] | mortality at 50 µg/cm2 [2, 4] [%] | YFM % Control (or Mortality) rating [3] | mortality at 50 µg/cm2 [1] [%] | mortality at 50 µg/cm2 [2] [%]
N#Cc1cc(Cl)cc(C2C(C(=O)Nc3ccc(Cl)c(C(=O)NC4CC(F)(F)C4)c3)C2(Cl)Cl)c1 (stereo not drawn) [Molecule F77, trans-2-Chloro-5-(2,2-dichloro-3-(3-chloro-5-cyanophenyl)cyclopropane-1-carboxamidocarboxamido)-N-(3,3-difluorocyclobutyl)benzamide] | 50 to 100 | 50 to 100 | A (80-100) | – | –
COc1cc([C@H]2[C@H](C(=O)Nc3ccc(Cl)c(C(=O)NC4(C#N)CC4)c3)C2(Cl)Cl)cc(F)c1Br (relative stereo) [Molecule F83, trans-5-(3-(4-Bromo-3-fluoro-5-methoxyphenyl)-2,2-dichlorocyclopropane-1-carboxamido)-2-chloro-N-(1-cyanocyclopropyl)benzamide] | 50 to 100 | 50 to 100 | A (80-100) | – | –
O=C1CCC(NC(=O)c2cc(NC(=O)[C@H]3[C@H](c4cc(Cl)cc(Cl)c4)C3(Cl)Cl)ccc2Cl)CC1 (relative stereo) [Molecule F65, trans-2-Chloro-5-(2,2-dichloro-3-(3,5-dichlorophenyl)cyclopropane-1-carboxamido)-N-(4-oxocyclohexyl)benzamide] | 0 to 50 | 50 to 100 | A (80-100) | – | –
O=C(NC1CC(F)(F)C1)c1cc(NC(=O)[C@@H]2[C@@H](c3cc(Cl)cc(Cl)c3)C2(Cl)Cl)ccc1Cl [Molecule F74, 2-Chloro-5-((1S,3S)-2,2-dichloro-3-(3,5-dichlorophenyl)cyclopropane-1-carboxamido)-N-(3,3-difluorocyclobutyl)benzamide] | 50 to 100 | 50 to 100 | A (80-100) | – | –
O=C(N[C@@H]1CON(CC(F)(F)F)C1=O)c1cc(NC(=O)C2C(c3cc(Cl)c(Cl)c(Cl)c3)C2(Cl)Cl)ccc1Cl (stereo in doubt) [Molecule F80, trans-2-Chloro-5-(2,2-dichloro-3-(3,4,5-trichlorophenyl)cyclopropane-1-carboxamido)-N—((R)-3-oxo-2-(2,2,2-trifluoroethyl)isoxazolidin-4-yl)benzamide] | 50 to 100 | 50 to 100 | A (80-100) | – | –
N#CC1(NC(=O)c2cc(NC(=O)[C@H]3[C@H](c4cc(Cl)cc(Cl)c4)C3(Br)Br)ccc2Cl)CC1 (relative stereo) [PF30, trans-2-Chloro-N-(1-cyanocyclopropyl)-5-(2,2-dibromo-3-(3,5-dichlorophenyl)-cyclopropane-1-carboxamido)benzamide] | 50 to 100 | 50 to 100 | D (No activity noticed in this bioassay) | – | –
O=C(NN1CC(CN2CCOCC2)OC1=O)c1cc(NC(=O)C2C(c3cc(Cl)cc(Cl)c3)C2(Cl)Cl)ccc1Cl (stereo not drawn) [PF41, trans-2-Chloro-5-(2,2-dichloro-3-(3,5-dichlorophenyl)cyclopropane-1-carbox-amido)-N-(5-(morpholinomethyl)-2-oxooxazolidin-3-yl)benzamide] | 0 to 50 | 50 to 100 | A (80-100) | – | –
O=C(NC1CC1(F)F)c1cc(NC(=O)[C@H]2[C@H](c3cc(Cl)cc(Cl)c3)C2(Cl)Cl)ccc1Cl (relative stereo) [PF23, trans-2-Chloro-5-(2,2-dichloro-3-(3,5-dichlorophenyl)cyclopropane-1-carboxamido)-N-(2,2-difluorocyclopropyl)benzamide] | 50 to 100 | 50 to 100 | A (80-100) | – | –
C[C@]1(c2cc(Cl)cc(Cl)c2)[C@H](C(=O)Nc2ccc(Cl)c(C(=O)NC3CC(F)(F)C3)c2)C1(Cl)Cl (relative stereo) [Molecule F61, trans-2-chloro-5-(2,2-dichloro-3-(3,5-dichloro-phenyl)-3-methylcyclopropane-1-carboxamido)-N-(3,3-difluorocyclobutyl)-benzamide] | 50 to 100 | 50 to 100 | A (80-100) | – | –
Nc1ccc([C@H]2[C@H](C(=O)Nc3ccc(Cl)c(C(=O)NC4CC(F)(F)C4)c3)C2(Cl)Cl)cc1 (relative stereo) [Molecule F70, trans-5-(3-(4-aminophenyl)-2,2-dichlorocyclopropane-1-carboxamido)-2-chloro-N-(3,3-difluorocyclobutyl)benzamide] | 0 to 50 | 50 to 100 | D (No activity noticed in this bioassay) | – | –
CC(C)(C)OC(=O)N1CC(NC(=O)c2cc(NC(=O)[C@H]3[C@H](c4cc(Cl)cc(Cl)c4)C3(Cl)Cl)ccc2Cl)C1 (relative stereo) [Molecule F54, trans-tert-butyl 3-(2-chloro-5-(2,2-dichloro-3-(3,5-dichlorophenyl)cyclopropanecarboxamido)-benzamido)azetidine-1-carboxylate] | 50 to 100 | 50 to 100 | D (No activity noticed in this bioassay) | – | –
CN(C(=O)c1cc(NC(=O)[C@H]2[C@H](c3ccc(Cl)c(Cl)c3)C2(Cl)Cl)ccc1Cl)C1(C#N)CC1 (relative stereo) [PF22, trans-2-Chloro-N-(1-cyanocyclopropyl)-5-(2,2-dichloro-3-(3,4-dichloro-phenyl)cyclopropane-1-carboxamido)-N-methylbenzamide] | 50 to 100 | 50 to 100 | B (More than 0-Less than 80) | – | –
N#CC1(NC(=O)c2cc(NC(=O)[C@H]3[C@H](c4ccc(C(F)F)cc4)C3(Cl)Cl)ccc2Cl)CC1 (relative stereo) [Molecule F92, trans-2-Chloro-N-(1-cyanocyclopropyl)-5-(2,2-dichloro-3-(4-(difluoromethyl)-phenyl)cyclopropane-1-carboxamido)benzamide] | 50 to 100 | 50 to 100 | A (80-100) | – | –
O=C(NN1CCOC1=O)c1cc(NC(=O)C2C(c3cc(Cl)cc(Cl)c3)C2(Cl)Cl)ccc1Cl (stereo not drawn) [PF34, trans-2-Chloro-5-(2,2-dichloro-3-(3,5-dichlorophenyl)cyclopropanecarbox-amido)-N-(2-oxooxazolidin-3-yl)benzamide] | 50 to 100 | 50 to 100 | A (80-100) | – | –
N#CC1(NC(=O)c2cc(NC(=O)C3C(c4cc(Cl)cc(Cl)c4)C3(Cl)Br)ccc2Cl)CC1 (stereo not drawn) [Molecule F72] | – | – | D (No activity noticed in this bioassay) | 50 to 100 | 50 to 100
O=C(NC1CCOC1=O)c1cc(NC(=O)C2C(c3cc(Cl)cc(Cl)c3)C2(Cl)Cl)ccc1Cl (stereo not drawn) [PF37, trans-2-Chloro-5-(2,2-dichloro-3-(3,5-dichlorophenyl)cyclopropane-1-carbox-amido)-N-(2-oxotetrahydrofuran-3-yl)benzamide] | 50 to 100 | 50 to 100 | A (80-100) | – | –
N#CC1(NC(=O)c2cc(NC(=O)[C@H]3[C@H](c4cc(F)c(Br)c(F)c4)C3(Cl)Cl)ccc2Cl)CC1 (relative stereo) [Molecule F82, trans-5-(3-(4-Bromo-3,5-difluorophenyl)-2,2-dichlorocyclopropane-1-carboxamido)-2-chloro-N-(1-cyanocyclopropyl)benzamide] | 50 to 100 | 50 to 100 | A (80-100) | – | –
CN(C(=O)c1cc(NC(=O)[C@H]2[C@H](c3ccc(Cl)c(Cl)c3)C2(Cl)Cl)ccc1Cl)C1CC(F)(F)C1 (relative stereo) [Molecule F33, trans-2-Chloro-5-(2,2-dichloro-3-(3,4-dichlorophenyl)cyclopropanecarboxamido)-N-(3,3-difluorocyclobutyl)-N-methylbenzamide] | 50 to 100 | 50 to 100 | A (80-100) | – | –
N#CC1(NC(=O)c2cc(NC(=O)[C@H]3[C@H](c4ccc(C(F)F)c(Cl)c4)C3(Cl)Cl)ccc2Cl)CC1 (relative stereo) [Molecule F89, trans-2-Chloro-N-(1-cyanocyclopropyl)-5-(2,2-dichloro-3-(3-chloro-4-(difluoromethyl)phenyl)cyclopropane-1-carboxamido)benzamide] | 50 to 100 | 50 to 100 | A (80-100) | – | –
O=C(NC1CC(F)(F)C1)c1cc(NC(=O)[C@H]2[C@H](c3cc(Cl)cc(Cl)c3)C2(Br)Br)ccc1Cl (relative stereo) [PF31, trans-2-Chloro-5-(2,2-dibromo-3-(3,5-dichlorophenyl)cyclopropane-1-carboxamido)-N-(3,3-difluorocyclobutyl)benzamide] | 50 to 100 | 50 to 100 | B (More than 0-Less than 80) | – | –
CC1(NC(=O)c2cc(NC(=O)[C@H]3[C@H](c4cc(Cl)cc(Cl)c4)C3(Cl)Cl)ccc2Cl)CC1 (relative stereo) [PF32, trans-2-Chloro-5-(2,2-dichloro-3-(3,5-dichloro-phenyl)cyclopropanecarboxamido)-N-(1-methylcyclopropyl)benzamide] | 50 to 100 | 50 to 100 | A (80-100) | – | –
